We go through 13 compounds from patent US20250195513A1, “DEGRADATION OF IRAK4 BY CONJUGATION OF IRAK4 INHIBITORS WITH E3 LIGASE LIGAND AND METHODS OF USE” (BeiGene, Ltd., priority 2022, published 2025).

By Dmax is commonly meant the largest share of the target that was removed. The term DC50 denotes the concentration at which degradation of the target reaches its halfway point.

The target of test [1] is T1, IRAK4 (Homo sapiens, UniProt Q9NWZ3).
T1 construct: endogenous in cells; host or cells: Karpas299
T1 sequence (Q9NWZ3 1-460): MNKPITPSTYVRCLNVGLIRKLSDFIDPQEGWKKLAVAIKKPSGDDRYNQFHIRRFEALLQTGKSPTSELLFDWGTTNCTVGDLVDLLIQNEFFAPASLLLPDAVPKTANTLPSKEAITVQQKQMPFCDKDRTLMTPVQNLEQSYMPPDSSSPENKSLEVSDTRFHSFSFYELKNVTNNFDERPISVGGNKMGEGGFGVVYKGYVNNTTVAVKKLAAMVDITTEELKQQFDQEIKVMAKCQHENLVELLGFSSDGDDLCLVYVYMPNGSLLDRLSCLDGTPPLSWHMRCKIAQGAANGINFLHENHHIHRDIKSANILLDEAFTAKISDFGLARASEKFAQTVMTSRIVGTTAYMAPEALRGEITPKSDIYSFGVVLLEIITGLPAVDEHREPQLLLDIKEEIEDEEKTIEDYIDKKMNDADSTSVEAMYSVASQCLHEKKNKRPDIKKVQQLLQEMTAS
As to the kind of experiment: IRAK4 Degradation Assay (Karpas299, HTRF/TR-FRET). Format: cell-based. The note with it: Karpas-299 cells. The gist of the method: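 Karpas299 cells at 0.2 million per well were exposed to serially diluted compounds for 24 h or 5 h, then lysed. IRAK4 remaining in lysates was quantified by HTRF (665/620 nm) after overnight antibody incubation at room temperature. Percent degradation was fitted to a four-parameter curve to give IC50 (DC50).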
In general terms: TR-FRET usually uses a lanthanide donor and a delayed reading to cut background.

Test [2] deals with T1, IRAK4. As to the kind of experiment: IRAK4 Degradation Assay with Human Serum (Karpas299, HTRF/TR-FRET). Format: cell-based. The settings on record: Karpas-299 in human serum, 24 hrs treatment; for DC50: read-out: IRAK4 degradtion with human serum assay DC50; for Dmax: read-out: IRAK4 degradtion with human serum assay Dmax (%). The essentials:
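Karpas299 cells in human AB serum (0.2 million/well) treated with serial compound dilutions for 24 h. After lysis, IRAK4 quantified by HTRF (overnight antibody incubation at room temperature, 665/620 nm read). Degradation percentage fitted to four-parameter curve to give DC50.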

[3] abbreviates: 24 h treatment, maximum percentage of degradation, read-out: IRAK4 in Karpas-299 (24 h) Dmax (%).
[4] abbreviates: 24 h treatment, read-out: IRAK4 in Karpas-299 (24 h) DC50.
Setting [5] is: 5 h treatment, maximum percentage of degradation, read-out: IRAK4 in Karpas-299 (5 h) Dmax (%).
[6] abbreviates: 5 h treatment, read-out: IRAK4 in Karpas-299 (5 h) DC50.

As to `Cc1nc(C2CCC(=O)NC2=O)ccc1N1CCC(N2CCN(C34CC(n5cc6cc(NC(=O)c7ccc8cc(C#N)cnn78)c(C(C)(C)O)cc6n5)(C3)C4)CC2)CC1` (centres unmarked) [Example 419, 3-cyano-N-(2-(3-(4-(1-(6-(2,6-dioxopiperidin-3-yl)-2-methylpyridin-3-yl)piperidin-4-yl)piperazin-1-yl)bicyclo[1.1.1]pentan-1-yl)-6-(2-hydroxypropan-2-yl)-2H-indazol-5-yl)pyrrolo[1,2-b]pyridazine-7-carboxamide], the Dmax in test [1] (setting [3]) and in test [2] was 97% each time. Also, the DC50 in test [1] (setting [4]) was found to be 1.6 nM; in test [2] it was 4 nM.

As to `CC(C)(O)c1cc2nn([C@H]3CC[C@H](N4CCN(CCNc5cc(F)c(C6CCC(=O)NC6=O)c(F)c5)CC4)CC3)cc2cc1NC(=O)c1ccc2cc(C#N)cnn12` (some centres unmarked) [Example 135, 3-cyano-N-(2-((1r,4r)-4-(4-(2-((4-(2,6-dioxopiperidin-3-yl)-3,5-difluorophenyl)amino)ethyl)piperazin-1-yl)cyclohexyl)-6-(2-hydroxypropan-2-yl)-2H-indazol-5-yl)pyrrolo[1,2-b]pyridazine-7-carboxamide], the Dmax in test [1] (setting [5]) turned out to be 93%; in test [1] (setting [3]), 98%; in test [2] it was 100%. The figures for the DC50 in test [1] (setting [6]), in test [1] (setting [4]) and in test [2] were 1.6 nM, 1.1 nM and 7.1 nM, respectively.

For the compound `CC(C)(O)c1cc2nn([C@H]3CC[C@H](N4CCN(C[C@H]5C[C@H](c6cc(F)c([C@H]7CCC(=O)NC7=O)c(F)c6)C5)CC4)CC3)cc2cc1NC(=O)c1ccc2cc(C#N)cnn12` [Example 382, 3-cyano-N-(2-((1R,4r)-4-(4-(((1R,3R)-3-(4-((R)-2,6-dioxopiperidin-3-yl)-3,5-difluorophenyl)cyclobutyl)methyl)piperazin-1-yl)cyclohexyl)-6-(2-hydroxypropan-2-yl)-2H-indazol-5-yl)pyrrolo[1,2-b]pyridazine-7-carboxamide], the results for the Dmax in test [1] (setting [3]) and in test [2] were 98% and 96%, respectively. Moreover, the DC50 amounted to 0.4 nM in test [1] (setting [4]) and 11 nM in test [2].

Regarding `COC[C@H]1CN([C@H]2CC[C@H](n3cc4cc(NC(=O)c5ccc6cc(C#N)cnn56)c(C(C)(C)O)cc4n3)CC2)CCN1C1CN(c2cc(F)c([C@H]3CCC(=O)NC3=O)c(F)c2)C1` [Example 318, 3-cyano-N-(2-((1R,4r)-4-((R)-4-(1-(4-((R)-2,6-dioxopiperidin-3-yl)-3,5-difluorophenyl)azetidin-3-yl)-3-(methoxymethyl)piperazin-1-yl)cyclohexyl)-6-(2-hydroxypropan-2-yl)-2H-indazol-5-yl)pyrrolo[1,2-b]pyridazine-7-carboxamide], the results for the Dmax in test [1] (setting [3]) and in test [2] were 91% and 95%, respectively. Moreover, the DC50 in test [1] (setting [4]) was determined as 1.1 nM; in test [2], 39 nM.

As to `CC(C)(O)c1cc2nn([C@H]3CC[C@H](CN4CCN(CCNc5cccc6c5C(=O)N(C5CCC(=O)NC5=O)C6=O)CC4)CC3)cc2cc1NC(=O)c1ccc2cc(C#N)cnn12` (some centres unmarked) [Example 438, 3-cyano-N-(2-((1r,4r)-4-((4-(2-((2-(2,6-dioxopiperidin-3-yl)-1,3-dioxoisoindolin-4-yl)amino)ethyl)piperazin-1-yl)methyl)cyclohexyl)-6-(2-hydroxypropan-2-yl)-2H-indazol-5-yl)pyrrolo[1,2-b]pyridazine-7-carboxamide], the Dmax in test [1] (setting [3]) and in test [2] was 96% each time. The figures for the DC50 in test [1] (setting [4]) and in test [2] were 2.5 nM and 17 nM, respectively.

For the compound `Cc1nc(C2CCC(=O)NC2=O)ccc1N1CC(N2CCN(C3CCC(n4cc5cc(NC(=O)c6ccc7cc(C#N)cnn67)c(C(C)(C)O)cc5n4)CC3)CC2)C1` (centres unmarked) [Example 426, 3-cyano-N-(2-((1r,4r)-4-(4-(1-(6-(2,6-dioxopiperidin-3-yl)-2-methylpyridin-3-yl)azetidin-3-yl)piperazin-1-yl)cyclohexyl)-6-(2-hydroxypropan-2-yl)-2H-indazol-5-yl)pyrrolo[1,2-b]pyridazine-7-carboxamide], the “IRAK4 in Karpas-299 (24 h) Dmax (%)” value in test [1] (24 h treatment, maximum percentage of degradation) turned out to be 95%. Moreover, the DC50 in test [1] (setting [4]) worked out at 5.5 nM. For the same compound, in test [2], the “IRAK4 degradtion with human serum assay Dmax (%)” value is given as 95% and the DC50 came to 12 nM.

Turning to `CC(C)(O)C[C@H]1CN(CCc2cc(F)c([C@H]3CCC(=O)NC3=O)c(F)c2)CCN1[C@H]1CC[C@H](n2cc3cc(NC(=O)c4ccc5cc(C#N)cnn45)c(C(C)(C)O)cc3n2)CC1` [Example 369, 3-cyano-N-(2-((1S,4r)-4-((S)-4-(4-((R)-2,6-dioxopiperidin-3-yl)-3,5-difluorophenethyl)-2-(2-hydroxy-2-methylpropyl)piperazin-1-yl)cyclohexyl)-6-(2-hydroxypropan-2-yl)-2H-indazol-5-yl)pyrrolo[1,2-b]pyridazine-7-carboxamide], the Dmax in test [1] (setting [3]) stood at 96%; in test [2] it was 97%. For the same compound, the DC50 in test [1] (setting [4]) stood at 0.6 nM; in test [2] it was 3 nM.

Take `Cc1cc(N2CCC(N3CCN([C@H]4CC[C@H](n5cc6cc(NC(=O)c7ccc8cc(C#N)cnn78)c(C(C)(C)O)cc6n5)CC4)CC3)CC2)cc(C)c1[C@H]1CCC(=O)NC1=O` [Example 289, 3-cyano-N-(2-((1r,4r)-4-(4-(1-(4-((R)-2,6-dioxopiperidin-3-yl)-3,5-dimethylphenyl)piperidin-4-yl)piperazin-1-yl)cyclohexyl)-6-(2-hydroxypropan-2-yl)-2H-indazol-5-yl)pyrrolo[1,2-b]pyridazine-7-carboxamide]: the Dmax in test [1] (setting [3]) and in test [2] was 98% in each case. The results for the DC50 in test [1] (setting [4]) and in test [2] were 1.3 nM and 19 nM, respectively.

Consider `COc1cc2nn([C@H]3CC[C@H](N4CCN(CCc5cc(F)c([C@H]6CCC(=O)NC6=O)c(F)c5)CC4)CC3)cc2cc1NC(=O)c1ccc2cc(C#N)cnn12` [Example 337, 3-cyano-N-(2-((1R,4r)-4-(4-(4-((R)-2,6-dioxopiperidin-3-yl)-3,5-difluorophenethyl)piperazin-1-yl)cyclohexyl)-6-methoxy-2H-indazol-5-yl)pyrrolo[1,2-b]pyridazine-7-carboxamide], for which the maximal degradation (Dmax) stood at 96% in test [1] (setting [3]) and 89% in test [2]. Further, the values for the DC50 in test [1] (setting [4]) and in test [2] were 2.1 nM and 10 nM, respectively.

Regarding `CC(C)(O)c1cc2nn(C3CCC(N4C[C@@H]5CN(C6CCN(c7cc(F)c([C@H]8CCC(=O)NC8=O)c(F)c7)CC6)C[C@H]5C4)CC3)cc2cc1NC(=O)c1ccc2cc(C#N)cnn12` (stereo partly drawn) [Example 361, 3-cyano-N-(2-((1R,4r)-4-((3aR,6aR)-5-(1-(4-((R)-2,6-dioxopiperidin-3-yl)-3,5-difluorophenyl)piperidin-4-yl)hexahydropyrrolo[3,4-c]pyrrol-2(1H)-yl)cyclohexyl)-6-(2-hydroxypropan-2-yl)-2H-indazol-5-yl)pyrrolo[1,2-b]pyridazine-7-carboxamide], the Dmax was determined as 97% in test [1] (setting [3]) and 93% in test [2]. The DC50 in test [1] (setting [4]) is 4.3 nM; in test [2], 5 nM.

Take `CC(C)(O)c1cc2nn(C3CCN([C@@H]4CCN(CCc5cc(F)c([C@H]6CCC(=O)NC6=O)c(F)c5)CC4(F)F)CC3)cc2cc1NC(=O)c1ccc2cc(C#N)cnn12` [Example 340, 3-cyano-N-(2-((R)-1′-(4-((R)-2,6-dioxopiperidin-3-yl)-3,5-difluorophenethyl)-3′,3′-difluoro-[1,4′-bipiperidin]-4-yl)-6-(2-hydroxypropan-2-yl)-2H-indazol-5-yl)pyrrolo[1,2-b]pyridazine-7-carboxamide]: the figures for the Dmax in test [1] (setting [3]) and in test [2] were 98% and 97%, respectively. Further, the DC50 was found to be 3.4 nM in test [1] (setting [4]) and 16 nM in test [2].

As to `CC(C)(O)c1cc2nn([C@H]3CC[C@H](N4CCN(C(=O)C5CN(c6cc(F)c([C@H]7CCC(=O)NC7=O)c(F)c6)C5)CC4)CC3)cc2cc1NC(=O)c1ccc2cc(C(F)(F)F)cnn12` [Example 207], the Dmax in test [1] (setting [3]) and in test [2] was 97% throughout. Besides, the half-maximal degradation concentration (DC50) in test [1] (setting [4]) is 1.9 nM; in test [2] it was 191 nM.

For `Cc1cc(C2CCC(=O)NC2=O)c(F)cc1[C@H]1C[C@H](N2CCN([C@H]3CC[C@H](n4cc5cc(NC(=O)c6ccc7cc(C#N)cnn67)c(C(C)(C)O)cc5n4)CC3)CC2)C1` (stereo partly drawn) [Example 297, 3-cyano-N-(2-((1R,4r)-4-(4-((1r,3R)-3-(4-(2,6-dioxopiperidin-3-yl)-5-fluoro-2-methylphenyl)cyclobutyl)piperazin-1-yl)cyclohexyl)-6-(2-hydroxypropan-2-yl)-2H-indazol-5-yl)pyrrolo[1,2-b]pyridazine-7-carboxamide], the Dmax in test [1] (setting [5]) was found to be 96%; in test [1] (setting [3]), 97%; in test [2], 99%. For the same compound, the DC50 in test [1] (setting [6]) is 3.4 nM; in test [1] (setting [4]) it was 1.4 nM; in test [2] it was 6 nM.
